Source: patent publication US20240189289A1, “INHIBITORS OF EPHB3 SIGNALING” (The Brigham and Women`s Hospital, Inc., priority 2021, published 2024)

Molecular target: T1, EphB3 (Homo sapiens, UniProt P54753)
T1 sequence (P54753 34-998): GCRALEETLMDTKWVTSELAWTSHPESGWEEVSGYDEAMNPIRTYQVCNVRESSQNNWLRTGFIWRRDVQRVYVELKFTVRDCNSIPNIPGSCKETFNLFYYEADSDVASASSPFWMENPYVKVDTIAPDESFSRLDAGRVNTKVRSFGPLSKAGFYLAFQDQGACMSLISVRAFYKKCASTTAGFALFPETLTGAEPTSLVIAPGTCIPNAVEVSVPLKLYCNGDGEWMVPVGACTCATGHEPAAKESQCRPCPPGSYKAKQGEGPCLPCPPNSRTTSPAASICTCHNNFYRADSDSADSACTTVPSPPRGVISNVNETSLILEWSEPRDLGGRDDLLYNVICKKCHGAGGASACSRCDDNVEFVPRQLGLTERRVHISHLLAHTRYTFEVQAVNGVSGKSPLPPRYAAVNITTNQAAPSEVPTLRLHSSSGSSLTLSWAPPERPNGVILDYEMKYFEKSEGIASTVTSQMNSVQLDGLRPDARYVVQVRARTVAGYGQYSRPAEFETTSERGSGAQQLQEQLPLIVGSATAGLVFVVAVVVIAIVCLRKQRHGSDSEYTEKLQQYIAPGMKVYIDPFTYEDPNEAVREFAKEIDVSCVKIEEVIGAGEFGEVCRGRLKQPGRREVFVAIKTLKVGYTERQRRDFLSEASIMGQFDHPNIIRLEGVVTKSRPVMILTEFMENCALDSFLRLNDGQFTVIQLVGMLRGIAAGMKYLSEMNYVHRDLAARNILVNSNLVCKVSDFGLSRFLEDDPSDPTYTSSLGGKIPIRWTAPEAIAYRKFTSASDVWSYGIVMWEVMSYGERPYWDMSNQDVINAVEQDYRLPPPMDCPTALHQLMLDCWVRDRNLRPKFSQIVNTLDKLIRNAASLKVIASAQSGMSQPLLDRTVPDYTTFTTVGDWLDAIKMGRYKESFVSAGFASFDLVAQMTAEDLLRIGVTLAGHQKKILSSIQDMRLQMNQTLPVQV
Assay: EphB3 radiometric kinase activity assay (33P ATP filter binding)
Type: biochemical
Conditions: Example 14; read-out: IC50 (μM), EphB3 receptor kinase inhibitory activity
Protocol: EphB3 radiometric kinase activity assay. To study the EphB3 kinase activity, a radioactive filter binding assay using 33P ATP was performed as described at the […] International Centre for Kinase profiling. […] The mix was harvested onto P81 filter plates and counts were read on a Topcount NXT.

Row | IC50 [µM] | Compound
1 | 6 | O=C(Nc1cccc(F)c1Cl)c1cnc2ccc(C3CCNCC3)cn12 [compound 123, N-(2-chloro-3-fluorophenyl)-6-(piperidin-4-yl)imidazo[1,2-a]pyridine-3-carboxamide]
2 | 84 | O=C(Nc1cccc2c1CCO2)c1cnc2ccc(C3CCNCC3)cn12 [compound 124, N-(2,3-dihydrobenzofuran-4-yl)-6-(piperidin-4-yl)imidazo[1,2-a]pyridine-3-carboxamide]

Continued, compound first:

Row | Compound | IC50 [µM]
3 | O=C(Nc1ncccc1Cl)c1cnc2ccc(C3CCNCC3)cn12 [compound 120, N-(3-chloropyridin-2-yl)-6-(piperidin-4-yl)imidazo[1,2-a]pyridine-3-carboxamide] | 2.9
4 | O=C(Nc1ccncc1Cl)c1cnc2ccc(C3CCNCC3)cn12 [compound 121, N-(3-chloropyridin-4-yl)-6-(piperidin-4-yl)imidazo[1,2-a]pyridine-3-carboxamide] | 8.1
5 | CN1CCC(c2ccc3ncc(C(=O)Nc4ccccc4Cl)n3c2)CC1 [compound 122, N-(2-chlorophenyl)-6-(1-methylpiperidin-4-yl)imidazo[1,2-a]pyridine-3-carboxamide] | 0.089
